Assay results as given in patent US10787442B2, “Modulators of indoleamine 2,3-dioxygenase” (GLAXOSMITHKLINE INTELLECTUAL PROPERTY DEVELOPMENT LIMITED, priority 2016, dated 2020).

The compounds below were run on human peripheral blood mononuclear cells (PBMC) (assay: PBMC cytotoxicity assay (CellTiter-Glo)). Conditions: cytotoxicity in stimulated PBMC, recorded as pCC50.
Format: cell-based
Method: Compounds of the present invention were tested via high-throughput cellular assays utilizing detection of kynurenine via mass spectrometry and cytotoxicity as end-points. […] Compounds with IDO1 inhibitory properties decreased the amount of kynurenine produced by the cells via the tryptophan catabolic pathway. Cellular toxicity due to the effect of compound treatment was measured using CellTiter-Glo® reagent (CTG) (Promega Corporation, Madison, Wis.), which is based on luminescent detection of ATP, an indicator of metabolically active cells.
In preparation for the assays, test compounds were serially diluted 3-fold in DMSO from a typical top concentration of 1 mM or 5 mM and plated at 0.5 μL in 384-well, polystyrene, clear bottom, tissue culture treated plates with lids (Greiner Bio-One, Kremsmünster, Austria) to generate 11-point dose response curves. Low control wells (0% kynurenine or 100% cytotoxicity) contained either 0.5 μL of DMSO in the presence of unstimulated (−IFN-γ/−LPS) PBMCs for the mass spectrometry assay or 0.5 μL of DMSO in the absence of cells for the cytotoxicity assay, and high control wells (100% kynurenine or 0% cytotoxicity) contained 0.5 μL of DMSO in the presence of stimulated (+IFN-γ/+LPS) PBMCs for both the mass spectrometry and cytotoxicity assays.
Frozen stocks of PBMCs were washed and recovered in RPMI 1640 medium (Thermo Fisher Scientific, Inc., Waltham, Mass.) supplemented with 10% v/v heat-inactivated fetal bovine serum (FBS) (Thermo Fisher Scientific, Inc., Waltham, Mass.), and 1× penicillin-streptomycin antibiotic solution (Thermo Fisher Scientific, Inc., Waltham, Mass.). The cells were diluted to 1,000,000 cells/mL in the supplemented RPMI 1640 medium. 50 μL of either the cell suspension, for the mass spectrometry assay, or medium alone, for the cytotoxicity assay, were added to the low control wells, on the previously prepared 384-well compound plates, resulting in 50,000 cells/well or 0 cells/well respectively. IFN-γ and LPS were added to the remaining cell suspension at final concentrations of 100 ng/ml and 50 ng/ml respectively, and 50 μL of the stimulated cells were added to all remaining wells on the 384-well compound plates. The plates, with lids, were then placed in a 37° C., 5% CO2 humidified incubator for 2 days.
Following incubation, the 384-well plates were removed from the incubator and allowed to equilibrate to room temperature for 30 minutes. For the cytotoxicity assay, CellTiter-Glo® was prepared according to the manufacturer's instructions, and 40 μL were added to each plate well. After a twenty minute incubation at room temperature, luminescence was read on an EnVision® Multilabel Reader (PerkinElmer Inc., Waltham, Mass.). For the mass spectrometry assay, 10 μL of supernatant from each well of the compound-treated plates were added to 40 μL of acetonitrile, containing 10 μM of an internal standard for normalization, in 384-well, polypropylene, V-bottom plates (Greiner Bio-One, Kremsmünster, Austria) to extract the organic analytes. Following centrifugation at 2000 rpm for 10 minutes, 10 μL from each well of the acetonitrile extraction plates were added to 90 μL of sterile, distilled H2O in 384-well, polypropylene, V-bottom plates for analysis of kynurenine and the internal standard on the RapidFire 300 (Agilent Technologies, Santa Clara, Calif.) and 4000 QTRAP MS (SCIEX, Framingham, Mass.). MS data were integrated using Agilent Technologies' RapidFire Integrator software, and data were normalized for analysis as a ratio of kynurenine to the internal standard.

SMILES | PBMC_TOX PXC50
CC(C)CN(c1ncc([C@H](C)CC(=O)O)cc1Nc1nc(C(C)C)ns1)C1CCOCC1 [Example 8] | <5.0
C[C@H](CC(=O)O)c1cnc(N(CC2CC2)C2CCOCC2)c(Nc2ccc(Cl)cn2)c1 [Example 9, (R)-3-(5-((5-chloropyridin-2-yl)amino)-6-((cyclopropylmethyl)(tetrahydro-2H-pyran-4-yl)amino)pyridin-3-yl)butanoic acid] | <5.0
CC(C)CN(c1ncc([C@H](C)CC(=O)O)cc1Nc1n[nH]c(C(F)(F)F)n1)C1CCCCC1 [Example 10, (R)-3-(6-(cyclohexyl(isobutyl)amino)-5-((5-(trifluoromethyl)-1H-1,2,4-triazol-3-yl)amino)pyridin-3-yl)butanoic acid] | <5.0
CC(C)CN(c1ncc([C@H](C)CC(=O)O)cc1Nc1nc(C(F)(F)F)ns1)C1CCCCC1 [Example 11, (R)-3-(6-(cyclohexyl(isobutyl)amino)-5-((3-(trifluoromethyl)-1,2,4-thiadiazol-5-yl)amino)pyridin-3-yl)butanoic acid] | <5.0
CC(C)CN(c1ncc([C@H](C)CC(=O)O)cc1Nc1nc(Cl)ns1)C1CCCCC1 [Example 12, (R)-3-(5-((3-chloro-1,2,4-thiadiazol-5-yl)amino)-6-(cyclohexyl(isobutyl)amino)pyridin-3-yl)butanoic acid] | <5.0
CC(C)CN(c1ncc([C@H](C)CC(=O)O)cc1Nc1ccc(Cl)cn1)C1CCCCC1 [Example 13, (R)-3-(5-((5-chloropyridin-2-yl)amino)-6-(cyclohexyl(isobutyl)amino)pyridin-3-yl)butanoic acid] | <5.0
CC(C)CN(c1ncc([C@H](C)CC(=O)O)cc1Nc1nc(C(C)C)ns1)C1CCCCC1 [Example 14, (R)-3-(6-(cyclohexyl(isobutyl)amino)-5-((3-isopropyl-1,2,4-thiadiazol-5-yl)amino)pyridin-3-yl)butanoic acid] | <5.0
COCc1nsc(Nc2cc([C@H](C)CC(=O)O)cnc2N(CC(C)C)C2CCCCC2)n1 [Example 15, (R)-3-(6-(cyclohexyl(isobutyl)amino)-5-((3-(methoxymethyl)-1,2,4-thiadiazol-5-yl)amino)pyridin-3-yl)butanoic acid] | <5.5
Cc1nsc(Nc2cc([C@H](C)CC(=O)O)cnc2N(CC(C)C)C2CCCCC2)n1 [Example 16, (R)-3-(6-(cyclohexyl(isobutyl)amino)-5-((3-methyl-1,2,4-thiadiazol-5-yl)amino)pyridin-3-yl)butanoic acid] | <5.2
CC(C)CN(c1ncc([C@H](C)CC(=O)O)cc1Nc1ccc(Cl)nc1)C1CCC(F)(F)CC1 [Example 17, (R)-3-(5-((6-chloropyridin-3-yl)amino)-6-((4,4-difluorocyclohexyl)(isobutyl)amino)pyridin-3-yl)butanoic acid] | <5.0
CC(C)CN(c1ncc([C@H](C)CC(=O)O)cc1Nc1ccc(Cl)cn1)C1CCC(F)(F)CC1 [Example 18, (R)-3-(5-((5-chloropyridin-2-yl)amino)-6-((4,4-difluorocyclohexyl) (isobutyl)amino)pyridin-3-yl)butanoic acid] | <5.0
CC(C)CN(c1ncc([C@H](C)CC(=O)O)cc1Nc1ccc(Cl)nc1)C1CC(F)(F)C1 [Example 19, (R)-3-(5-((6-chloropyridin-3-yl)amino)-6-((3,3-difluorocyclobutyl)(isobutyl)amino)pyridin-3-yl) butanoic acid] | <5.0
CO[C@H]1CC[C@@H](N(CC(C)C)c2ncc([C@H](C)CC(=O)O)cc2Nc2nc(Cl)ns2)CC1 [Example 21, (R)-3-(5-((3-chloro-1,2,4-thiadiazol-5-yl)amino)-6-(isobutyl((1s,4S)-4-methoxycyclohexyl)amino)pyridin-3-yl)butanoic acid] | <5.0
CO[C@H]1CC[C@@H](N(CC(C)C)c2ncc([C@H](C)CC(=O)O)cc2Nc2nc(C(F)(F)F)ns2)CC1 [Example 22, (R)-3-(6-(isobutyl((1s,4S)-4-methoxycyclohexyl)amino)-5-((3-(trifluoromethyl)-1,2,4-thiadiazol-5-yl)amino)pyridin-3-yl) butanoic acid] | <5.4
CO[C@H]1CC[C@@H](N(CC(C)C)c2ncc([C@H](C)CC(=O)O)cc2Nc2ccc(C#N)nc2)CC1 [Example 23, (R)-3-(5-((6-cyanopyridin-3-yl)amino)-6-(isobutyl((1s,4S)-4-methoxycyclohexyl)amino)pyridin-3-yl)butanoic acid] | <5.0
CO[C@H]1CC[C@@H](N(CC(C)C)c2ncc([C@H](C)CC(=O)O)cc2Nc2ccc(Cl)cn2)CC1 [Example 24, (R)-3-(5-((5-chloropyridin-2-yl)amino)-6-(isobutyl((1s,4S)-4-methoxycyclohexyl)amino)pyridin-3-yl)butanoic acid] | <5.0
CO[C@H]1CC[C@@H](N(CC(C)C)c2ncc([C@H](C)CC(=O)O)cc2Nc2ccc(C#N)cn2)CC1 [Example 25, (R)-3-(5-((5-cyanopyridin-2-yl)amino)-6-(isobutyl((1s,4S)-4-methoxycyclohexyl)amino)pyridin-3-yl)butanoic acid] | <5.0
CO[C@H]1CC[C@H](N(CC(C)C)c2ncc([C@H](C)CC(=O)O)cc2Nc2nc(C(F)(F)F)ns2)CC1 [Example 26, (R)-3-(6-(isobutyl((1r,4R)-4-methoxycyclohexyl)amino)-5-((3-(trifluoromethyl)-1,2,4-thiadiazol-5-yl)amino)pyridin-3-yl)butanoic acid] | <5.0
CO[C@H]1CC[C@H](N(CC(C)C)c2ncc([C@H](C)CC(=O)O)cc2Nc2ccc(Cl)cn2)CC1 [Example 27, (R)-3-(5-((5-chloropyridin-2-yl)amino)-6-(isobutyl((1r,4R)-4-methoxycyclohexyl)amino)pyridin-3-yl)butanoic acid] | <5.0
CC(C)CN(c1ncc([C@H](C)CC(=O)O)cc1Nc1nc(C(F)(F)F)ns1)[C@H]1CC[C@H](O)CC1 [Example 28, (R)-3-(6-(((1r,4R)-4-hydroxycyclohexyl)(isobutyl)amino)-5-((3-(trifluoromethyl)-1,2,4-thiadiazol-5-yl)amino)pyridin-3-yl)butanoic acid] | <5.0
CC(C)CN(c1ncc(C(C)CC(=O)O)cc1Nc1nc(C2CC2)ns1)C1CCOCC1 (stereo not shown) [Example 37, 3-{5-[(3-cyclopropyl-1,2,4-thiadiazol-5-yl)amino]-6-[(2-methylpropyl)(oxan-4-yl)amino]pyridin-3-yl}butanoic acid] | <5.0
CC(C)CN(c1ncc([C@H](C)CC(=O)O)cc1Nc1nnc(C2CC2)s1)C1CCOCC1 [Example 38, (3R)-3-{5-[(5-cyclopropyl-1,3,4-thiadiazol-2-yl)amino]-6-[(2-methylpropyl)(oxan-4-yl)amino]pyridin-3-yl}butanoic acid] | <5.0
CC(C)CN(c1ncc([C@H](C)CC(=O)O)cc1Nc1nc(Cl)ns1)C1CCOCC1 [Example 39, (3R)-3-{5-[(3-chloro-1,2,4-thiadiazol-5-yl)amino]-6-[(2-methylpropyl)(oxan-4-yl)amino]pyridin-3-yl}butanoic acid] | <5.0
CC(C)CN(c1ncc([C@H](C)CC(=O)O)cc1Nc1nc(C2CC2)ns1)C1CCOCC1 [Example 41, (3R)-3-{5-[(3-cyclopropyl-1,2,4-thiadiazol-5-yl)amino]-6-[(2-methylpropyl)(oxan-4-yl)amino]pyridin-3-yl}butanoic acid] | <5.0
CC(C)CN(c1ncc([C@H](C)CC(=O)O)cc1Nc1n[nH]c(C(F)(F)F)n1)C1CCOCC1 [Example 42, (3R)-3-{6-[(2-methylpropyl)(oxan-4-yl)amino]-5-{[5-(trifluoromethyl)-1H-1,2,4-triazol-3-yl]amino}pyridin-3-yl}butanoic acid] | <5.0
